Values joined by “and” are separate entries in the source; they are usually repeats but may differ in a detail not shown here. Equal entries are not always repeated. Marks after values point to notes of the source that are not given here.
Experiments:
[1] = Chemical stability in phosphate buffered saline pH 7.4; assay type: physicochemical; conditions: for %Compd at 6 h, pH 7.4: percent remaining after 6 h of incubation at 37°C in PBS buffer pH 7.4; for L- and D-aspartate derivatives produced by deamidation at the side chain: buffer pH 7.4, data not shown
Protocol: (§1) The chemical and metabolic stability of PEA and all prodrugs were studied by incubating each compound (5 μL of a […] solution in DMSO, or DMSO as control) with 495 μL of 10 mM phosphate buffered saline pH 7.4 for chemical stability, 80% v/v rat plasma or 20% w/v rat liver homogenate prepared accordingly to previously described procedures for metabolic stability, reaching a final concentration of 50 nm for the test compound.
(§2) Rat plasma and liver samples were pre-incubated at 37°C for 10 min before adding the compounds. After incubation for different time periods (0, 15, 30, 60, 120, 240 and 360 min), samples were deproteinized by adding 100 μL of acetonitrile with 75 nmol L^-1 IS (PEA-d4). The samples were centrifuged (14 000 g, 10 min, 4°C), and the supernatants were analyzed by HPLC–ESI–MS/MS. For each tested compound, a multiple reaction monitoring (MRM) ESI–MS/MS method was set up in order to monitor the relative concentration of compound and released PEA at the different incubation times, compared to the time t = 0, in rat plasma and liver homogenate.

[2] = Stability and PEA release in 80% v/v rat plasma; assay type: in vitro ADME; conditions: for half-life at 50 nM: rat, pH 7.4, 80% v/v rat plasma, read-out: Rat Plasma Compd t 1/2; for half-life at 50 nM / Rat Plasma Compd t 1/2: 50 nm compound; for remaining at 6 h, 50 nM: pH 7.4, read-out: Percent remaining after 6 h incubation in rat plasma
Protocol: as §1, §2
Cmax and tmax in rat plasma were read from the raw data as the coordinates of the highest concentration observed. A Thermo TSQ Quantum triple-quadrupole mass spectrometer (Thermo Italia, Milan, Italy) with heated electrospray ionization (H-ESI) ion source was used for mass detection and analysis. Mass spectrometric analyses were done in positive ion mode. H-ESI interface parameters were set as follows: probe middle (D) position; capillary temperature 270°C; spray voltage 3.0 kV. Nitrogen was used as nebulizing gas at the following pressure: sheath gas 35 psi; auxiliary gas 15 arbitrary units (a.u.). Argon was used as the collision gas at a pressure of approximately 1.5 mtorr (1 torr = 133.3 Pa). For quantitative analysis, the following parent ion → product ions transitions were selected: PEA (1): m/z 300.2 → m/z 62.3 (tube lens 60 V; collision energy 19 eV); PEA-d4 (Internal Standard): m/z 304.2 → m/z 66.3 + m/z 287.2 (tube lens 72 V; collision energy 15, 12 eV). MRM transitions, tube lens voltages and collision energies for compounds 3–5, 7–9, 19–24, 26–31, and 33 are reported in the S1 File. […] The coefficients of correlation (r^2) were >0.99 for all curves. The LOQ was 1 nmol mL^−1 for all analytes. Extraction efficiency was determined by comparing the peak area ratio of spiked samples at three concentration levels (low, intermediate, and high) to those of extracted charcoal treated blank plasma spiked with the corresponding concentrations. The mean extraction recovery ranged from 109% to 91% for all compounds. The specificity of the assay was evaluated by comparison of HPLC–ESI–MS/MS chromatograms of the analytes at the LOQ to those of charcoal treated blank plasma samples in triplicate.

[3] = Stability in 20% w/v rat liver homogenate; assay type: in vitro ADME; conditions: 37°C; for half-life at 50 nM / remaining at 2 h, 50 nM: rat, 20% w/v rat liver homogenate; for half-life at 50 nM: read-out: Rat Liver Compd t 1/2; for remaining at 2 h, 50 nM: read-out: Percent remaining after 2 h incubation in rat liver homogenate
Protocol: as §1, §2

Molecule: CCCCCCCCCCCCCCCC(=O)NCCOC(=O)OCOC(C)=O [compound 3, Acetoxymethyl 2-(palmitoylamino)ethyl carbonate]
- %Compd at 6 h, pH 7.4 [1]: 86 ± 1%
- half-life at 50 nM ([2]; 80% v/v rat plasma, 37°C): < 1 min
- half-life at 50 nM ([3]; rat liver homogenate): < 1 min

Molecule: CCCCCCCCCCCCCCCC(=O)NCCOC(=O)OCOC(=O)C(C)C [compound 4, Isobutyroyloxymethyl 2-(palmitoylamino)ethyl carbonate]
- %Compd at 6 h, pH 7.4 [1]: 84 ± 1%
- half-life at 50 nM ([2]; 80% v/v rat plasma, 37°C): 1.1 ± 0.2 min
- half-life at 50 nM ([3]; rat liver homogenate): < 1 min

Molecule: CCCCCCCCCCCCCCCC(=O)NCCOC(=O)OCOC(=O)C1CCCCC1 [compound 5, (Cyclohexanelcarboxyloyloxy)methyl 2-(palmitoylamino)ethyl carbonate]
- %Compd at 6 h, pH 7.4 [1]: 84 ± 1%
- Rat Plasma Compd t 1/2 ([2]; 80% v/v rat plasma, 37°C): 5.1 ± 0.5 min
- half-life at 50 nM ([2]; 80% v/v rat plasma, 37°C): 5 min
- half-life at 50 nM ([3]; rat liver homogenate): 1.2 ± 0.2 min

Molecule: CCCCCCCCCCCCCCCC(=O)NCCOC(=O)NCC(=O)O [compound 7, N-(2-Palmitoylamino-ethyloxy)carbonyl-glycine]
- %Compd at 6 h, pH 7.4 [1]: 101 ± 1%
- remaining at 6 h, 50 nM ([2]; 80% v/v rat plasma, 37°C, 6 h): 96 ± 4%
- half-life at 50 nM ([3]; rat liver homogenate): 23 ± 1 min

Molecule: CCCCCCCCCCCCCCCC(=O)NCCOC(=O)N[C@@H](C)C(=O)O [compound 8, N-(2-Palmitoylamino-ethyloxy)carbonyl-L-alanine]
- %Compd at 6 h, pH 7.4 [1]: 103 ± 3%
- remaining at 6 h, 50 nM ([2]; 80% v/v rat plasma, 37°C, 6 h): 96 ± 2%
- half-life at 50 nM ([3]; rat liver homogenate): 29 ± 3 min

Molecule: CCCCCCCCCCCCCCCC(=O)NCCOC(=O)N[C@H](C(=O)O)C(C)C [compound 9, N-(2-Palmitoylamino-ethyloxy)carbonyl-L-valine]
- %Compd at 6 h, pH 7.4 [1]: 99 ± 1%
- remaining at 6 h, 50 nM ([2]; 80% v/v rat plasma, 37°C, 6 h): 98 ± 1%
- remaining at 2 h, 50 nM ([3]; 2 h): 92 ± 5%

Molecule: CCCCCCCCCCCCCCCC(=O)NCCOC(=O)[C@H](C)N.Cl [compound 19, 2-(palmitoylamino)ethyl L-alaninate hydrochloride]
- %Compd at 6 h, pH 7.4 [1]: 64 ± 5%
- half-life at 50 nM ([2]; 80% v/v rat plasma, 37°C): ~1 min
- Rat Liver Compd t 1/2 ([3]; rat liver homogenate): 1.4 ± 0.5 min
- half-life at 50 nM ([3]; rat liver homogenate): ~1 min

Molecule: CCCCCCCCCCCCCCCC(=O)NCCOC(=O)[C@@H](N)[C@@H](C)CC.Cl [compound 21, 2-(Palmitoylamino)ethyl L-isoleucinate hydrochloride]
- %Compd at 6 h, pH 7.4 [1]: 103 ± 6%
- Increase in plasma half-life relative to L-Ala-PEA ([2]; rat plasma): 200 fold
- half-life at 50 nM ([2]; 80% v/v rat plasma, 37°C): 205 ± 16 min
- remaining at 2 h, 50 nM ([3]; 2 h): 65 ± 5%

Molecule: CCCCCCCCCCCCCCCC(=O)NCCOC(=O)[C@@H](N)Cc1c[nH]c2ccccc12.Cl [compound 22, 2-(Palmitoylamino)ethyl L-tryptophanate hydrochloride]
- %Compd at 6 h, pH 7.4 [1]: 96 ± 1%
- Rat Plasma Compd t 1/2 ([2]; 80% v/v rat plasma, 37°C): 4.5 ± 0.5 min
- half-life at 50 nM ([2]; 80% v/v rat plasma, 37°C): ~5 min
- half-life at 50 nM ([3]; rat liver homogenate): ~36 min

Molecule: CCCCCCCCCCCCCCCC(=O)NCCOC(=O)[C@@H](N)CC(N)=O.Cl [compound 23, 2-(Palmitoylamino)ethyl L-asparaginate hydrochloride]
- L- and D-aspartate derivatives produced by deamidation at the side chain [1]: about 1%
- %Compd at 6 h, pH 7.4 [1]: 3% and 3.3 ± 0.3%
- half-life at 50 nM ([1]; phosphate buffered saline, pH 7.4, read-out: t 1/2 in buffered solution at pH 7.4): ~3.3 min
- half-life at 50 nM ([2]; 80% v/v rat plasma, 37°C): ~9 min
- half-life at 50 nM ([3]; rat liver homogenate): 24 ± 1 min

Molecule: CCCCCCCCCCCCCCCC(=O)NCCOC(=O)[C@@H](N)CCC(N)=O.Cl [compound 24, 2-(Palmitoylamino)ethyl L-glutaminate hydrochloride]
- %Compd at 6 h, pH 7.4 [1]: 61 ± 3%
- half-life at 50 nM ([2]; 80% v/v rat plasma, 37°C): 18 ± 1 min
- half-life at 50 nM ([3]; rat liver homogenate): ~80 min

Molecule: CCCCCCCCCCCCCCCC(=O)NCCOC(=O)[C@@H](N)CC(=O)O.Cl [compound 26, 1-(2-(Palmitoylamino)ethyl) L-aspartate hydrochloride]
- %Compd at 6 h, pH 7.4 [1]: 85 ± 4%
- half-life at 50 nM ([2]; 80% v/v rat plasma, 37°C): 172 ± 2 min
- remaining at 2 h, 50 nM ([3]; 2 h): 66 ± 5%

Molecule: CCCCCCCCCCCCCCCC(=O)NCCOC(=O)[C@H](N)CC(N)=O.Cl [compound 27, 2-(Palmitoylamino)ethyl D-asparaginate hydrochloride]
- L- and D-aspartate derivatives produced by deamidation at the side chain [1]: about 1%
- %Compd at 6 h, pH 7.4 [1]: 3.5 ± 0.3%
- half-life at 50 nM ([2]; 80% v/v rat plasma, 37°C): 14 ± 1 min
- half-life at 50 nM ([3]; rat liver homogenate): 55 ± 4 min

Molecule: CCCCCCCCCCCCCCCC(=O)NCCOC(=O)C[C@H](N)C(=O)O.Cl [compound 29, 4-(2-(Palmitoylamino)ethyl) L-aspartate hydrochloride]
- %Compd at 6 h, pH 7.4 [1]: 83 ± 3%
- half-life at 50 nM ([2]; 80% v/v rat plasma, 37°C): 262 ± 35 min
- half-life at 50 nM ([3]; rat liver homogenate): 21 ± 1 min

Molecule: CCCCCCCCCCCCCCCC(=O)N[C@H](C)CO [compound 31, (R)-α-methyl-PEA]
- %Compd at 6 h, pH 7.4 [1]: 95 ± 2%
- remaining at 6 h, 50 nM ([2]; 80% v/v rat plasma, 37°C, 6 h): 82 ± 4%
- remaining at 2 h, 50 nM ([3]; 2 h): 87 ± 1%

Molecule: CCCCCCCCCCCCCCCC(=O)N[C@H](C)COC(=O)[C@@H](N)C(C)C.Cl [compound 33, (2R)-2-(palmitoylamino)propyl L-valinate hydrochloride]
- %Compd at 6 h, pH 7.4 [1]: 93 ± 4%
- Rat plasma half-life relative to L-Val-PEA (20) ([2]; rat plasma): 4 fold
- half-life at 50 nM ([2]; 80% v/v rat plasma, 37°C): 190 ± 3 min
- half-life at 50 nM ([3]; rat liver homogenate): 38 min

Molecule: (S)-α-methyl-PEA [compound 30]
- %Compd at 6 h, pH 7.4 [1]: 96 ± 3%
- Percent remaining after 6 h incubation in rat plasma ([2]; 80% v/v rat plasma, 37°C, 6 h): 80 ± 4% ^e
- Percent remaining after 2 h incubation in rat liver homogenate ([3]; 2 h): 79 ± 6% ^f

From PMC4460047 (PLoS ONE, 2015)
